The results in this text go back to patent publication US12281116B2, “HTT modulators for treating Huntington's disease” (CHDI Foundation, Inc., priority 2021, dated 2025).

The test system of the assay is tHTT (total HTT protein). Description: Time-resolved FRET (HTRF) assay: Q48-Huntingtin and total-Huntingtin detection in GEN020 hESC lysates. It counts as cell-based. The conditions noted are these: tHTT activity; human embryonic stem cells GEN020 (mutant 48 Q repeat allele); test compounds 48 hours; read-out: HTT Lowering Activity (HTRF). The procedure: Time-resolved FRET assay: Q48-Huntingtin and total-Huntington detection Detection of endogenous HTT protein in cell lysates was performed using a protocol adapted from Weiss et al. See Weiss A et al. (2009). Single-step detection of mutant huntingtin in animal and human tissues: a bioassay for Huntington's disease. Anal. Biochem. 395(1): 8-15.
The multiplex assay was performed in human embryonic stem cells (GEN020 hESCs with mutant 48 Q repeat allele) which have been derived by Genea Biocells from human blastocysts of HD donors. Bradley C K et al. (2011). Derivation of Huntington's disease-affected human embryonic stem cell lines, Stem Cells Dev. 2011 March; 20(3):495-502. Cells were plated into 384-well collagen coated plates (10,000 cells per well) and left to adhere for 24 hours, test compounds were then added for 48 hours (37° C., 5% CO2), cells were then lysed, and the lysate was transferred to a black 384-well assay plate.
The assay plate included a combination of HTRF labelled monoclonal antibodies added to recognize discreet areas of the HTT protein, the Tb “donor” antibody (2B7-Tb: 0.2 ng/well) recognizes a sequence at the N-terminus of the protein, an Alexa488 “acceptor 1” antibody (MW1-Alexa488: 30 ng/well) recognizes an area in the polyQ region, whereas a d2 “acceptor 2” antibody (MAB2166-d2: 6 ng/well) recognizes a sequence beyond the polyQ region. These detection reagents were incubated with the cell lysate at room temperature for 4-6 hours before having their fluorescence quantified at 615 nm (donor) and 535 nm and 665 nm (acceptor 1 and 2 respectively). The donor/acceptor ratio between these signals indicated the relative quantities of mHTT and tHTT.
Results for various compounds described herein are provided in the Tables below. tHTT activity in this assay is categorized as 10-20 μM (−); 1-10 μM (+); 0.5-1 μM (++); 0.1-0.5 μM (+++); <0.1 μM (++++).

Consider `C#CCOc1cc2nn(C)cc2cc1NC(=O)c1cnc(N2CC[C@@H](NC)C2)cn1` [Example 4, (R)-N-(2-methyl-6-(prop-2-yn-1-yloxy)-2H-indazol-5-yl)-5-(3-(methylamino)pyrrolidin-1-yl)pyrazine-2-carboxamide], for which the IC50 is less than 100 nM.

Take `CCNC1C2CN(c3cnc(C(=O)Nc4cc(F)c5nc(C)cn5c4)cn3)CC21` (stereo not shown) [Example 23, 5-(6-(ethylamino)-3-azabicyclo[3.1.0]hexan-3-yl)-N-(8-fluoro-2-methylimidazo[1,2-a]pyridin-6-yl)pyrazine-2-carboxamide]: the IC50 is less than 100 nM.

As to `Cc1cn2cc(NC(=O)c3cnc(N4CC5C(N)C5C4)cn3)cc(F)c2n1` (stereo not shown) [Example 24, 5-(6-amino-3-azabicyclo[3.1.0]hexan-3-yl)-N-(8-fluoro-2-methyl-imidazo[1,2-a]pyridin-6-yl)pyrazine-2-carboxamide], the IC50 is less than 100 nM.

On to `COc1nc(NC(=O)c2cnc(N3CC4C(N)C4C3)cn2)cn2cc(C)nc12` (stereo not shown) [Example 26], for which the IC50 is less than 100 nM. In the case of `CN[C@@H]1CCN(c2cnc(C(=O)Nc3cc(OC)c4nc(C)oc4c3)cn2)C1` [Example 22, (R)-N-(4-methoxy-2-methylbenzo[d]oxazol-6-yl)-5-(3-(methylamino)pyrrolidin-1-yl)pyrazine-2-carboxamide] it was 100 to 500 nM; in that of `Cc1cc2cc(NC(=O)c3cnc(N4CC[C@@H](CNC5CC5)C4)cn3)cc(Cl)n2n1` [Example 16], 500 to 1000 nM. In the case of `Cc1cn2cc(NC(=O)c3cnc(N4C[C@@H](C)[C@H](NC5CC5)C4)cn3)cc(F)c2n1` [Example 13, 5-((3S,4R)-3-(cyclopropylamino)-4-methylpyrrolidin-1-yl)-N-(8-fluoro-2-methylimidazo[1,2-a]pyridin-6-yl)pyrazine-2-carboxamide] it was 100 to 500 nM; in that of `Cc1nc2c(F)cc(NC(=O)c3cnc(N4CC(CNC(C)C)C4)cn3)cc2o1` [Example 12, N-(4-fluoro-2-methylbenzo[d]oxazol-6-yl)-5-(3-((isopropylamino)methyl)azetidin-1-yl)pyrazine-2-carboxamide], 100 to 500 nM; in that of `Cc1cn2cc(NC(=O)c3cnc(-n4cc(CNC5CC5)cn4)cn3)cc(F)c2n1` [Example 46, 5-(4-((Cyclopropylamino)methyl)-1H-pyrazol-1-yl)-N-(8-fluoro-2-methylimidazo[1,2-a]pyridin-6-yl)pyrazine-2-carboxamide], 500 to 1000 nM. Regarding `Cc1cn2cc(NC(=O)c3cnc(N4CC[C@@H](NC5=NCCN5)C4)cn3)cc(F)c2n1` [Example 20, (R)-5-(3-((4,5-dihydro-1H-imidazol-2-yl)amino)pyrrolidin-1-yl)-N-(8-fluoro-2-methylimidazo[1,2-a]pyridin-6-yl)pyrazine-2-carboxamide], the IC50 was 100 to 500 nM. The value for `Cc1cn2cc(NC(=O)c3cnc(N4CCC(N(C)C)C4=O)cn3)cc(F)c2n1` (single isomer, unassigned) [Example 38, (S*)-5-(3-(dimethylamino)-2-oxopyrrolidin-1-yl)-N-(8-fluoro-2-methylimidazo[1,2-a]pyridin-6-yl)pyrazine-2-carboxamide] was 500 to 1000 nM; that for `Cc1cn2cc(NC(=O)c3cnc(N4CC(CNC5CC5)CC4=O)cn3)cc(F)c2n1` (single isomer, unassigned) [Example 40, (R*)-5-(4-((cyclopropylamino)methyl)-2-oxopyrrolidin-1-yl)-N-(8-fluoro-2-methylimidazo[1,2-a]pyridin-6-yl)pyrazine-2-carboxamide] was 100 to 500 nM; that for `Cc1cn2cc(NC(=O)c3cnc(N4CC[C@H](CNC5CC5)C4)cn3)c(F)c(C)c2n1` [Example 31, 5-[(3R)-3-[(cyclopropylamino)methyl]pyrrolidin-1-yl]-N-(7-fluoro-2,8-dimethyl-imidazo[1,2-a]pyridin-6-yl)pyrazine-2-carboxamide] was less than 100 nM.
